{
  "source": "patent US20240306641A1",
  "about": "“P-BOOSTER” (EUROCHEM ANTWERPEN, priority 2021, published 2024)",
  "key": {"[1]": {"system": "Arabidopsis thaliana Columbia-0", "experiment": "Arabidopsis horizontal plate leaf area assay", "type": "in vivo", "conditions": "Arabidopsis horizontal plates (Table 4); control without compound 63", "experimental": "(§1) All Arabidopsis plant experiments were performed using the Arabidopsis thaliana Columbia-0 background. The Arabidopsis pSPX1::GUS line is described in the […] 2008, 54: 965-975. For rice, the cultivar Nipponbare was used. For maize, the cultivars DKC 2931 and 8104 were used for regular pot experiments and sand-based pot experiments, respectively. For soybean, the cultivar Primus was used. […] The medium was solidified due to the addition of 0.6% Gelrite, unless stated otherwise. In case of vertical plates (root length and root hair measurements), the medium was supplied with 0.5% of sucrose and 1 μM (low phosphate, 1 μM KH2PO4, 9.9 mM KCl), 10 μM (low phosphate 10 μM KH2PO4, 9.9 mM KCl) or 1.25 mM KH2PO4 (high phosphate). Arabidopsis seeds were stratified for 2 days at 4° C. before germination. Seedlings were germinated in climate-controlled growth chambers at 22° C. under continuous light ([…] m^−2 s^−1). Husked rice seeds were germinated on wetted Whatman paper for 2 days at 37° C. and then transferred to Sterivent boxes or square Petri dishes with solid medium. Maize and soybean seeds were wetted 24 hours at room temperature prior to sowing in pots.\nArabidopsis primary root growth experiments were done on MS1/2 on vertical standing plates and roots were measured 11 days after germination. Roots were imaged using a flatbed scanner (EPSON Expression 11000XL) and root length was measured using ImageJ software. Arabidopsis shoot biomass was determined in 11 days after germination and growth on vertical standing plates with modMS. Arabidopsis leaf area was measured 21 days after germination on horizontal plates with modMS medium. Plates were scanned from the top using a flatbed scanner (EPSON Expression 11000XL) and the visible leaf area was measured using ImageJ software. Rice plate experiments used vertically standing Petri dishes containing MS1/2 medium (low phosphate—0.001 mM) solidified with 0.8% washed agar. Plant height was measured 11 days after germination. Rice box experiments used modMS medium and a low phosphate condition of 0.025 mM phosphate. Plant height was measured 13 days after germination. All growth experiments occurred with 10 μM of compound and in low phosphate conditions, unless stated otherwise. Controls always received the same DMSO concentration."}, "[2]": {"system": "SPX1 phosphate starvation biomarker (pSPX1::GUS)", "experiment": "Chemical activity assessment: SPX1 suppression in Arabidopsis pSPX1::GUS reporter line (GUS stained area)", "type": "in vivo, Arabidopsis thaliana", "conditions": "50 μM compound, low phosphate modMS liquid medium, 96-well, 7 days after germination; low phosphate control of same plate", "experimental": "as §1\nFor the chemical activity assessment 3 to 8 seeds per well of Arabidopsis pSPX1::GUS line were sown in 96-well plates containing 150 μl of low phosphate modMS liquid medium containing 1% of sucrose. Compounds were added in 50 μM concentration, starting from a 5 mM stock of compounds solved in DMSO. Different chemical substances were separately added to different wells. Per plate, 16 control wells were used, 8 containing only the low phosphate medium and 1% DMSO, and 8 containing high phosphate medium and 1% DMSO. 7 days after germination, plates were scanned using a flatbed scanner (EPSON Expression 11000XL) and analyzed for leaf size. After scanning, the growth medium was replaced by GUS staining solution (see Plant Mol. Biol. Rep. 1994, 12: 37-42 for details) and incubated for 1.5 hours at 37° C. The plates were scanned a second time and analyzed for GUS signal area. Measurements of both leaf area and GUS signal area were conducted by filtering out and measure the green and blue signal, respectively using ImageJ software. If the green leaf area was 50% or less than the control, samples were omitted. Additionally, all results were visually screened for leaf size and GUS signal.\nTo identify new substances that suppress the expression of the SPX1 phosphate starvation biomarker, we used an Arabidopsis SPX1 reporter line pSPX1::GUS. […] This observation was confirmed in two experimental repeats."}, "[3]": {"system": "Arabidopsis thaliana Columbia-0", "experiment": "Root hair number and length quantification, Arabidopsis vertical plate", "type": "in vivo", "conditions": "for activity at 1 µM: 1 μM compound", "experimental": "as §1\nRoots were imaged using a stereomicroscope or a VHX-6000. Number and length of the root hairs parallel to the medium surface was determined at 4 to 6 mm above the root meristem. Root hair length was measured using the ImageJ software."}, "[4]": {"system": "maize cultivar DKC 2931", "experiment": "Regular maize pot experiment (potting soil)", "type": "in vivo", "conditions": "low phosphate, 10 μM compound", "experimental": "as §1\n(§2) Regular Arabidopsis, soybean and maize pot experiments used an unfertilized potting soil, which was supplemented at the start of the experiment with 50 ml H2O containing 0.25 g/l NH4NO3 and 0.44 g/l (high phosphate) or no (maize and soybean) or 0.11 g/l KH2PO (Arabidopsis) for low phosphate conditions. For the sand-based maize pot experiment, sand was supplemented with 50 ml H2O containing 0.25 g/l NH4NO3 and 0.38 g/l (high phosphate) or 0.02 g/l (low phosphate) KH2PO4. Potassium was balanced via addition of KCl. Compound concentration was 10 μM, calculated based on the total water content after watering, and was added at the start of the experiment (Arabidopsis) or once a week (maize). Indexed chlorophyll contents were received via a SPAD 502 Plus Chlorophyll Meter. All parameters in the sand experiment, except the rate of leaf 4 (measured the first 4 days after emergence), were measured 19 days after sowing. Measurements in the pot experiments with potting soil were done after 4 weeks of growth, except for leaf 5, which was measured at 26 days. The long term maize pot experiment was performed on the automated Phenovision platform (see Mertens et al, 2021, https://doi.org/10.3389/fpls.2021.640914) with maize cultivars B104 and DKC2931. End point measurements occurred after 90 days (B104) or 70 days (DKC2931). Plants were grown on an unfertilized potting soil, which was fertilized bi-weekly with 50 mL modified Hoagland solution (2.5× concentrated; but with 0.25 mM KH2PO4)."}, "[5]": {"system": "maize cultivar B104", "experiment": "Long term maize pot experiment, Phenovision platform, B104", "type": "in vivo", "conditions": "B104, end point after 90 days", "experimental": "as §2"}, "[6]": {"system": "maize cultivar DKC2931", "experiment": "Long term maize pot experiment, Phenovision platform, DKC2931", "type": "in vivo", "conditions": "DKC2931, end point after 70 days", "experimental": "as §2"}, "[7]": {"conditions": "Arabidopsis thaliana, read-out: Total root hair length per root (in % compared to the control)"}, "[8]": {"conditions": "Arabidopsis vertical plate, high phosphate"}},
  "data": [
    {"smiles": "CCN(CCCNC)c1ccccc1", "note": "[Example 5]", "values": [
      {"measurement": "Average leaf area", "setting": "[1]", "value": 65, "unit": "mm^2"}
    ]},
    {"smiles": "CCN(CCCNC(=O)CNC(=O)c1cc(C)cc(C)c1)c1ccccc1", "note": "[Example 6]", "values": [
      {"measurement": "GUS (SPX1) stained area normalized to the number of seeds", "setting": "[2]", "value": 8, "unit": "pixels"}
    ]},
    {"smiles": "Cc1ccccc1-c1nnc(SCC(=O)NCCCN(C)c2ccccc2)n1C", "note": "[Example 11]", "values": [
      {"measurement": "GUS (SPX1) stained area normalized to the number of seeds", "setting": "[2]", "value": 800, "unit": "pixels"}
    ]},
    {"smiles": "CN(CCCN)c1ccccc1", "note": "[Example 4]", "values": [
      {"measurement": "Average leaf area", "setting": "[1]", "value": 72, "unit": "mm^2"}
    ]},
    {"smiles": "CCN(C)c1ccccc1", "note": "[Example 9]", "values": [
      {"measurement": "activity at 1 µM", "setting": "[3]; [7]", "value": 390, "unit": "%"},
      {"measurement": "activity at 3 µM", "setting": "[3]; Arabidopsis thaliana, 3 μM compound, read-out: Total root hair length per root (in % compared to the control)", "value": 313, "unit": "%"},
      {"measurement": "activity at 10 µM", "setting": "[3]; Arabidopsis thaliana, 10 μM compound, read-out: Total root hair length per root (in % compared to the control)", "value": 758, "unit": "%"}
    ]},
    {"smiles": "CCN(CCCN)c1ccccc1", "note": "[Example 2]", "values": [
      {"measurement": "activity at 1 µM", "setting": "[3]; [7]", "value": 886, "unit": "%"},
      {"measurement": "Average root hair length per root in high phosphate conditions", "setting": "[3]; [8]", "value": 0.28, "unit": "mm"},
      {"measurement": "Root hair number in high phosphate conditions (one plane in 2 mm region)", "setting": "[3]; [8]", "value": 8},
      {"measurement": "Total root hair length per root in high phosphate conditions", "setting": "[3]; [8]", "value": 0.27, "unit": "cm"},
      {"measurement": "Plant height", "setting": "[4]; 4 weeks", "value": 62, "unit": "cm"},
      {"measurement": "Shoot weight", "setting": "[4]; 4 weeks", "value": 4.5, "unit": "g"},
      {"measurement": "Leaf 5", "setting": "[4]; 26 days", "value": 46, "unit": "cm"},
      {"measurement": "Biomass", "setting": "[5]", "value": 37, "unit": "g"},
      {"measurement": "Plant height", "setting": "[5]", "value": 719, "unit": "mm"},
      {"measurement": "Plants with developed ears", "setting": "[5]", "value": 62, "unit": "%"},
      {"measurement": "Sum of leaf length", "setting": "[5]", "value": 6050, "unit": "mm"},
      {"measurement": "Biomass", "setting": "[6]", "value": 31, "unit": "g"},
      {"measurement": "Plant height", "setting": "[6]", "value": 1010, "unit": "mm"},
      {"measurement": "Plants with developed ears", "setting": "[6]", "value": 100, "unit": "%"},
      {"measurement": "Sum of leaf length", "setting": "[6]", "value": 3950, "unit": "mm"},
      {"measurement": "GUS (SPX1) stained area normalized to the number of seeds", "setting": "[2]", "value": 21, "unit": "pixels"}
    ]},
    {"smiles": "CN(CCCNC(=O)CSc1nnnn1-c1ccccc1)c1ccccc1", "note": "[Example 10]", "values": [
      {"measurement": "GUS (SPX1) stained area normalized to the number of seeds", "setting": "[2]", "value": 298, "unit": "pixels"}
    ]},
    {"smiles": "NCCCNc1ccccc1", "note": "[Example 3]", "values": [
      {"measurement": "Average leaf area", "setting": "[1]", "value": 69, "unit": "mm^2"}
    ]}
  ]
}
